These results are taken from patent US9365562B2, “1,3 substituted azetidine PDE10 inhibitors” (Merck Sharp & Dohme Corp., priority 2011, dated 2016).

This experiment has as its target human PDE10A2 (Homo sapiens (Human), UniProt Q9Y233). In words: PDE10 fluorescence polarization (IMAP FP) inhibition assay. The class given is biochemical. The settings on record: apparent inhibition constant, FAM-labeled cAMP substrate 50 nM, room temperature. In short, it runs like this: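 Cytoplasmic lysate of AD293 cells transiently expressing human PDE10A2, enzyme preincubated 60 min at room temperature with compounds (1% DMSO), then 50 nM FAM-cAMP added for 60 min. Buffer 10 mM Tris HCl pH 7.2, 10 mM MgCl2, 1 mM DTT; IMAP binding reagent stop, FP read after ≥1 h.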
A general note: Polarisation of emitted light reports the rotation of a fluorescent probe.

human PDE10A2, sequence (Q9Y233 267-1055): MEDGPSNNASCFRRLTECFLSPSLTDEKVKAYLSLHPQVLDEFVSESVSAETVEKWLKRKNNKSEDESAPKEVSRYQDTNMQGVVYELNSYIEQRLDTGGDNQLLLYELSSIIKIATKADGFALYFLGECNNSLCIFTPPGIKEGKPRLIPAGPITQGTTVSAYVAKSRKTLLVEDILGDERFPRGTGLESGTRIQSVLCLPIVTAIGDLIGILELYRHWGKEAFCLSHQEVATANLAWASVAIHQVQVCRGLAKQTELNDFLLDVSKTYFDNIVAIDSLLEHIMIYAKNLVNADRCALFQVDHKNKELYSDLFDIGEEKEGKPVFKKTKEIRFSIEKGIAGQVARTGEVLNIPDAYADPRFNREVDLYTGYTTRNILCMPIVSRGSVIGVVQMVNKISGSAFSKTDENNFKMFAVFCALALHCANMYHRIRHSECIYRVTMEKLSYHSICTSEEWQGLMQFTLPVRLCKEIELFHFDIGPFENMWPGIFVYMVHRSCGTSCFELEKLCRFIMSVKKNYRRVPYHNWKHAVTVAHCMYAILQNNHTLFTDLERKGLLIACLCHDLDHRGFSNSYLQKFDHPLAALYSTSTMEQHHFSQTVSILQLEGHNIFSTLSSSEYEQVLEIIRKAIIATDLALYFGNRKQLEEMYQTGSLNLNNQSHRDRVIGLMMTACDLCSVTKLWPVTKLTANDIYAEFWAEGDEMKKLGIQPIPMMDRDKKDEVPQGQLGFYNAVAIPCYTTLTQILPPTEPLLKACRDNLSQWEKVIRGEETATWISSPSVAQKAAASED

On to `Cc1noc(COc2nc(N3CC(c4nc5ccccc5n4C)C3)cc(-n3nc(C)nc3C)n2)n1` [Example 75, 5-(((4-(3,5-dimethyl-1H-1,2,4-triazol-1-yl)-6-(3-(1-methyl-1H-benzo[d]imidazol-2-yl)azetidin-1-yl)pyrimidin-2-yl)oxy)methyl)-3-methyl-1,2,4-oxadiazole], for which the Ki worked out at 0.7 nM.

In the case of `Cc1ccc(-c2cc(N3CC(c4nc5ccccc5n4C)C3)nc(C(F)(F)F)n2)nc1` [Example 97, 1-methyl-2-(1-(6-(5-methylpyridin-2-yl)-2-(trifluoromethyl)pyrimidin-4-yl)azetidin-3-yl)-1H-benzo[d]imidazole], the Ki is 0.9 nM.

`Cc1nc(N2CC(c3nc4ccccc4n3C)C2)cc(-n2cccn2)n1` [Example 3, 1-methyl-2-(1-(2-methyl-6-(1H-pyrazol-1-yl)pyrimidin-4-yl)azetidin-3-yl)-1H-benzo[d]imidazole]: the Ki was 2.5 nM.

Take `Cc1cnn(-c2cc(N3CC(c4nc5ccccc5n4C)C3)nc(C)n2)n1` [Example 28, 1-methyl-2-(1-(2-methyl-6-(4-methyl-2H-1,2,3-triazol-2-yl)pyrimidin-4-yl)azetidin-3-yl)-1H-benzo[d]imidazole]: the Ki turned out to be 1.7 nM.

As to `Cc1nc(N2CC(c3nc4ccccc4n3C)C2)cc(-n2nc(C)nc2Cc2ccc(F)cc2)n1` [Example 58, 2-(1-(6-(5-(4-fluorobenzyl)-3-methyl-1H-1,2,4-triazol-1-yl)-2-methylpyrimidin-4-yl)azetidin-3-yl)-1-methyl-1H-benzo[d]imidazole], the Ki is 0.12 nM.

On to `Cc1cnn(-c2cc(N3CC(c4nc5ccccc5n4C)C3)nc(C)n2)c1` [Example 2, 1-methyl-2-(1-(2-methyl-6-(4-methyl-1H-pyrazol-1-yl)pyrimidin-4-yl)azetidin-3-yl)-1H-benzo[d]imidazole], for which the Ki amounted to 0.61 nM.

Take `CCc1cnn(-c2cc(N3CC(c4nc5ccccc5n4C)C3)nc(C)n2)c1` [Example 15, 2-(1-(6-(4-ethyl-1H-pyrazol-1-yl)-2-methylpyrimidin-4-yl)azetidin-3-yl)-1-methyl-1H-benzo[d]imidazole]: the Ki came out at 3.4 nM.

As to `COc1cccnc1-c1cc(N2CC(c3nc4ccccc4n3C)C2)nc(C)n1` [Example 100, 2-(1-(6-(3-methoxypyridin-2-yl)-2-methylpyrimidin-4-yl)azetidin-3-yl)-1-methyl-1H-benzo[d]imidazole], the Ki was 41 nM.

Consider `Cc1ccc(-c2nc(C)nn2-c2cc(N3CC(c4nc5ccccc5n4C)C3)nc(C)n2)cn1` [Example 55, 1-methyl-2-(1-(2-methyl-6-(3-methyl-5-(6-methylpyridin-3-yl)-1H-1,2,4-triazol-1-yl)pyrimidin-4-yl)azetidin-3-yl)-1H-benzo[d]imidazole], for which the Ki came out at 10 nM.

In the case of `Cc1nc(-c2cccnc2)cc(N2CC(c3nc4ccccc4n3C)C2)n1` [Example 81, 1-methyl-2-(1-(2-methyl-6-(pyridin-3-yl)pyrimidin-4-yl)azetidin-3-yl)-1H-benzo[d]imidazole], the Ki was 76 nM.

As to `Cc1nc(N2CC(c3nc4ccccc4n3C)C2)cc(-n2nc(C)nc2-c2c(F)cccc2F)n1` [Example 56, 2-(1-(6-(5-(2,6-difluorophenyl)-3-methyl-1H-1,2,4-triazol-1-yl)-2-methylpyrimidin-4-yl)azetidin-3-yl)-1-methyl-1H-benzo[d]imidazole], the Ki stood at 0.24 nM.

Turning to `Cc1nc(-c2ccncc2)cc(N2CC(c3nc4ccccc4n3C)C2)n1` [Example 86, 1-methyl-2-(1-(2-methyl-6-(pyridin-4-yl)pyrimidin-4-yl)azetidin-3-yl)-1H-benzo[d]imidazole], the Ki is 46 nM.

Regarding `COc1cnn(-c2cc(N3CC(c4nc5ccccc5n4C)C3)nc(C)n2)c1` [Example 18, 2-(1-(6-(4-methoxy-1H-pyrazol-1-yl)-2-methylpyrimidin-4-yl)azetidin-3-yl)-1-methyl-1H-benzo[d]imidazole], the Ki was determined as 3.2 nM.
